Results on seven molecules are retold here after ChEMBL document CHEMBL5137091, “Investigating the Structure-Activity Relationship of 1,2,4-Triazine G-Protein-Coupled Receptor 84 (GPR84) Antagonists” (J Med Chem, 2022).

By IC50 is commonly meant the midpoint of a concentration-inhibition curve. What is called fraction unbound is the share of the substance not bound to proteins or other matrix.

For data set [1], the target named is G-protein coupled receptor 84 (Homo sapiens, UniProt Q9NQS5). The data set can be described thus: biochemical.
G-protein coupled receptor 84, sequence (Q9NQS5 whole entry): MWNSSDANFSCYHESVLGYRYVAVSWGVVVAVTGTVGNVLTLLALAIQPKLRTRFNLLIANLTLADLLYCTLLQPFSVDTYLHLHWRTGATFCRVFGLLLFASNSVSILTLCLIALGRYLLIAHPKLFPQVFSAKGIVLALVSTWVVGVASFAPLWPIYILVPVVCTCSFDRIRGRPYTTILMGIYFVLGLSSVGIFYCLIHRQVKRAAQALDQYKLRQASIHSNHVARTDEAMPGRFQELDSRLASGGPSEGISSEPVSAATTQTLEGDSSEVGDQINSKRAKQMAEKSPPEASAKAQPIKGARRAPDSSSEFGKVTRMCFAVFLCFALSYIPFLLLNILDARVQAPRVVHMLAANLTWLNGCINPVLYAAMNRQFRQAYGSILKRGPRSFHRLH
The nature of data set [2]: Protein binding in mouse plasma assessed as unbound fraction. The data set is classed as ADME, cell-free.

As for `c1ccc(-c2nnc(Cc3c[nH]c4ccccc34)nc2-c2ncccn2)cc1`, the IC50 in data set [1] is 263 nM.

As for `c1ccc(-c2cnnc(Cc3c[nH]c4ccccc34)n2)cc1`, in data set [1], the half-inhibitory concentration (IC50) was 10200 nM.

With `c1ccc(-c2nc(Cc3c[nH]c4ccccc34)nnc2-c2ccc(CN3CCOCC3)cc2)cc1`, in data set [2], the fraction unbound is < 0.01.

On to `c1ccc(-c2nnc(Cc3c[nH]c4ccccc34)nc2-c2ccccc2)cc1`, for which, in data set [2], the fraction unbound was < 0.01.

For the molecule `COC(=O)c1cccc(-c2nnc(Cc3c[nH]c4ccccc34)nc2-c2ccccc2)c1`, the IC50 in data set [1] is 115 nM.

Turning to `COC(=O)c1cccc(-c2nc(Cc3c[nH]c4ccccc34)nnc2-c2ccccc2)c1`, in data set [1], the IC50 is 398 nM.

Regarding `c1ccc(-c2cnc(Cc3c[nH]c4ccccc34)nn2)cc1`, the IC50 in data set [1] is 5620 nM.
